Source: US20160355465A1, “NOVEL MODIFIED CURCUMINS AND THEIR USES” (THE RESEARCH FOUNDATION OF STATE UNIVERSITY OF NEW YORK, priority 2011, published 2016)
Entries after “also recorded” stand apart in the source; their conditions may differ.

Key:
MMP-12 = MMP-12 (Homo sapiens, UniProt P39900); assay: fluorimetric assay of MMP activity; assay type: biochemical; conditions: synthetic fluorescent peptide substrate Mca-Lys-Pro-Leu-Gly-Leu-Dpa-Ala-Arg-NH2
skin wounds = assay: histological and histomorphometric assessment of skin wounds; assay type: in vivo, rat; conditions: diabetic rats, topical 1% and systemic compared with topical 3%, 7 days
Protocol: The following five experimental groups (n=3 rats per group) were established: Non-diabetic control rats (NDC) treated by daily application of white petrolatum jelly (“vehicle”) for 7 days, diabetic rats (D group) treated daily with vehicle alone; diabetics treated by daily topical application of either a 1% (D+1%) or a 3% (D+3%) suspension of Compound 4 in the vehicle; and diabetics treated systemically by daily oral intubation of a 1 ml suspension of Compound 4 (in carboxymethylcellulose) at a dose of 30 mg/kg over the 7-day treatment protocol (D+30 mg/kg). At the end of this time period, the circular wounds were clinically assessed by measuring diameter of the wound in millimeters, blood samples were collected, the rats were sacrificed, and skin samples collected for histological/histochemical, and biochemical assessment as described below. • 1) On day 7 after inducing wound healing, the animals were anesthetized and blood samples collected for blood glucose (one Touch Ultra Glucometer; Johnson & Johnson, New Brunswick, N.J.) and Hemoglobin A1c (A1c Now+; Bayer Health Care, Sunnyvale, Calif.) measurements. • 2) Photographs were taken for clinical observations to assess wound closure. […]

[1] = toxicity / tolerability in diabetic rats; assay type: in vivo
Protocol: The following five experimental groups (n=3 rats per group) were established: Non-diabetic control rats (NDC) treated by daily application of white petrolatum jelly (“vehicle”) for 7 days, diabetic rats (D group) treated daily with vehicle alone; diabetics treated by daily topical application of either a 1% (D+1%) or a 3% (D+3%) suspension of Compound 4 in the vehicle; and diabetics treated systemically by daily oral intubation of a 1 ml suspension of Compound 4 (in carboxymethylcellulose) at a dose of 30 mg/kg over the 7-day treatment protocol (D+30 mg/kg). At the end of this time period, the circular wounds were clinically assessed by measuring diameter of the wound in millimeters, blood samples were collected, the rats were sacrificed, and skin samples collected for histological/histochemical, and biochemical assessment as described below. • 1) On day 7 after inducing wound healing, the animals were anesthetized and blood samples collected for blood glucose (one Touch Ultra Glucometer; Johnson & Johnson, New Brunswick, N.J.) and Hemoglobin A1c (A1c Now+; Bayer Health Care, Sunnyvale, Calif.) measurements. • 2) Photographs were taken for clinical observations to assess wound closure. The % reduction of the wound surface was calculated by measuring the diameter (in millimeters) of each wound before and after the treatment protocol. • 3) Wound tissues on day 7 were excised from 3 sites per rat and pooled for biochemical analysis. […] The supernates were then dialyzed against the Tris-HCl, NaCl, CaCl2 buffer, and the proteinases partially purified by ammonium sulfate precipitation and examined for levels of MMP-2 (72 kD gelatinse) and MMP-9 (92 kD gelatinase) by gelatin zymography using denatured type I collagen (gelatin) as the substrate (6). • 4) The remaining wounds were assessed histologically & histochemically by Dr. Steve McClain (McClain Labs, Smithtown, N.Y.) as follows: Biopsies of each wound site were taken and included both the wound tissue and surrounding non-wounded tissue. […]

[2] = blood glucose of the rats of the collagen experiment; assay type: in vivo, rat; conditions: diabetic rats
MMP-14 = MMP-14 (Homo sapiens, UniProt P50281); assay: fluorimetric assay of MMP activity; assay type: biochemical; conditions: synthetic fluorescent peptide substrate Mca-Lys-Pro-Leu-Gly-Leu-Dpa-Ala-Arg-NH2
peritoneal macrophages = assay: cell migration (chemotaxis) assay of peritoneal macrophages; assay type: in vivo, rat; conditions: diabetic rats, oral 30 mg/kg daily, 21 days
Protocol: Adult male Sprague-Dawley rats (body weight 300-350 g) were injected through the tail vein with either 0.9% saline (non-diabetic control) or with the same solution containing streptozotocin (70 mg/kg body weight) to induce diabetes. Non-diabetic rats served as normal controls. The diabetic rats were distributed into 2 experimental groups (3 rats per group). Urine glucose levels were measured weekly with Tes-Tape (Eli Lilly Inc.). One group of rats was treated by oral gavage of Compound 4 (30 mg/kg body weight) daily for 21 days; the Compound 4 was suspended in 2% carboxymethyl cellulose and polytron/homogenized. The normal & diabetic vehicle-treated (control) groups were oral gavaged with vehicle alone daily.
Rat peritoneal macrophages were harvested with 10 ml RPMI 4 days after intraperitoneal injection of 10 ml of thioglycolate (3% wt/vol). Macrophages were then purified by density gradient centrifugation (lymphoprep) and cell numbers were counted in a hemocytometer. The cells were then tested in a cell migration assay (Cell BioLabs, Inc, CytoSelect 96-well with 5 um fluorometric format) using conditioned medium containing inflammatory mediators including MCP-1 from LPS-macrophages as a chemoattractant. The macrophages from different groups of rats were also plated onto 24 well-plates with and without p.g.LPS challenge for 24 hours in 37° C., 5% CO2. […]

MMP-1 = biological target: T1, MMP-1 (Homo sapiens, UniProt P03956); assay: fluorimetric assay of MMP activity; assay type: biochemical; conditions: synthetic fluorescent peptide substrate Mca-Lys-Pro-Leu-Gly-Leu-Dpa-Ala-Arg-NH2
T1 sequence (P03956 100-469): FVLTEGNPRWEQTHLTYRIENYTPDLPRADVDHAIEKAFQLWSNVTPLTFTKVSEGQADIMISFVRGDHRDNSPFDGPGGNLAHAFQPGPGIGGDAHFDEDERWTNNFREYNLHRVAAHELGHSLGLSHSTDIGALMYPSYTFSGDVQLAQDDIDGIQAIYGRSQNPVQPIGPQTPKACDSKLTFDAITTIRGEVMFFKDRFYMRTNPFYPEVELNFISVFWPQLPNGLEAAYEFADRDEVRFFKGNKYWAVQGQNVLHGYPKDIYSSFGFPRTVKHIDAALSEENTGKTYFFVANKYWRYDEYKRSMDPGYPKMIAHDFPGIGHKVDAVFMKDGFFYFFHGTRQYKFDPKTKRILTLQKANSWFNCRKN

MMP-2 = biological target: T2, MMP-2 (Homo sapiens, UniProt P08253); assay: fluorimetric assay of MMP activity; assay type: biochemical; conditions: synthetic fluorescent peptide substrate Mca-Lys-Pro-Leu-Gly-Leu-Dpa-Ala-Arg-NH2; read-out: IC50 MMP-2
T2 sequence (P08253 110-660): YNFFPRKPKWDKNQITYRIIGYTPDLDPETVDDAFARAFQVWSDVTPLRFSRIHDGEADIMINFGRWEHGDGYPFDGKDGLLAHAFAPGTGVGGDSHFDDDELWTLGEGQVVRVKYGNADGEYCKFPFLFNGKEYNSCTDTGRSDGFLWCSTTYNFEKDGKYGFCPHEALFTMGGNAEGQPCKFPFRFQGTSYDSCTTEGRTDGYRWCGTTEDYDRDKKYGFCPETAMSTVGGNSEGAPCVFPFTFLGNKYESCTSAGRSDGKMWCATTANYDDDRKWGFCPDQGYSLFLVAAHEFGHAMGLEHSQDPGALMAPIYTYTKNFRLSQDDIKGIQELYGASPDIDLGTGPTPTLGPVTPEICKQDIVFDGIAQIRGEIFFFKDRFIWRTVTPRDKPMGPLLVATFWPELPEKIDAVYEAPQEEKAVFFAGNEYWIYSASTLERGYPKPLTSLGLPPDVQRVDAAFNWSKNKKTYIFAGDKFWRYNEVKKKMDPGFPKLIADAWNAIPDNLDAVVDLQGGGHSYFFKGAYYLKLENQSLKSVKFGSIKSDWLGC

MMP-12, sequence (P39900 106-470): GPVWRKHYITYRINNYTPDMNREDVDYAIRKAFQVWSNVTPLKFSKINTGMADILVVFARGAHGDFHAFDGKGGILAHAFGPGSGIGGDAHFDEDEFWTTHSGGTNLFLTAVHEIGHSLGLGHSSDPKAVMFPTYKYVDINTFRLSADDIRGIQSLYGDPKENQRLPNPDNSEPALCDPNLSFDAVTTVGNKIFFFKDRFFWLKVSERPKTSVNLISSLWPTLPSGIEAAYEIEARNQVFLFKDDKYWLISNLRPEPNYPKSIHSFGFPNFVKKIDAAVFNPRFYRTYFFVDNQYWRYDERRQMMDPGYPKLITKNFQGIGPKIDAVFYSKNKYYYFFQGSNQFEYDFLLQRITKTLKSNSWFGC

Q: For O=C(/C=C/c1ccc(O)cc1)C(C(=O)/C=C/c1ccc(O)cc1)C(=O)Nc1ccccc1 [Compound 4, 1,7-Bis(4-hydroxyphenyl)-4-N-phenylaminocarbonylhepta-1E, 6E-dien-3,5-dione], which IC50 (MMP-12) is on record?
A: Its IC50 is 2 ± 0.4 µM.

Q: And the “histological healing of epithelium and connective tissue” value (skin wounds)?
A: The value was “more effective than treatment with topical 3% Compound 4”.

Q: And the toxic effects ([1]; 30 mg/kg body weight, diabetic rats)?
A: The toxic effects was “virtually no toxic effects”.

Q: What about the tolerability ([1]; topical (e.g. 1%) or systemic administration) of the same compound?
A: Its tolerability is “well tolerated; also recorded: well tolerated and not toxic”.

Q: What about the “Blood Glucose” value ([2]; 0.25% topical) of the same compound?
A: Its value is 538 mg/dL.

Q: And the “Blood Glucose” value ([2]; 1% topical)?
A: The value was 545 mg/dL.

Q: What about the IC50 (MMP-14) of the same compound?
A: Its IC50 is 15.3 ± 3.1 µM.

Q: What about the macrophage chemotactic activity (peritoneal macrophages) of the same compound?
A: The macrophage chemotactic activity was “counteracted the suppression of macrophage chemotactic activity”.

Q: And the IC50 (MMP-1)?
A: Its IC50 is 69.8 ± 2 µM.

Q: And the IC50 (MMP-2)?
A: Its IC50 is 4.8 ± 0.5 µM.
